Test results reported in the supplement of paper PMC10307832.

Experiments:
Test in all cases: relative viability (nuclei count vs DMSO), 5 days (fraction); higher = more cells survive
[1] = compound: C1CNCCC1C2=CC(=NN2)C3=CC=NC=C3 + CCNC(=O)c1noc(-c2cc(C(C)C)c(O)cc2O)c1-c1ccc(CN2CCOCC2)cc1 [Luminespib] (partner 0.01 µM)
In short: (§1)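 Lung cancer cell lines in 1536-well plates were dosed by pin tool the day after seeding, either with one drug alone or with a fixed anchor-drug dose plus five library-drug doses (not always all listed) in √10 steps. After 5 days, cells were fixed and their nuclei stained in one step (final 0.05% Triton X-100, 1% formaldehyde, 1 ug/ml Hoechst), then counted on 4× images. Relative viability is the nuclei count in treated wells divided by that in vehicle wells. Values are medians of duplicate plates.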

[2] = compound: C[C@@H](N)c1ccc(C(=O)Nc2ccnc3[nH]ccc23)cc1 + Cc1cc(Nc2cc(N3CCN(C)CC3)nc(Sc3ccc(NC(=O)C4CC4)cc3)n2)n[nH]1 [Tozasertib] (partner 0.1 µM)
In short: as §1

[3] = compound: C[C@@H](N)c1ccc(C(=O)Nc2ccnc3[nH]ccc23)cc1 + N=C(N)NC(=N)NCCc1ccccc1 [Phenformin] (partner 250 µM)
In short: as §1

[4] = compound: C[C@@H](N)c1ccc(C(=O)Nc2ccnc3[nH]ccc23)cc1 + NC(=O)Nc1cc(-c2cccc(F)c2)sc1C(=O)N[C@H]1CCCNC1 [AZD7762] (partner 0.2 µM)
In short: as §1

Row | Cell Line | relative viability ([1]; first compound 0.08 µM) | relative viability ([1]; first compound 0.8 µM) | relative viability ([1]; first compound 2.53 µM) | relative viability ([1]; first compound 8 µM) | relative viability ([2]; first compound 0.04 µM) | relative viability ([2]; first compound 0.1265 µM) | relative viability ([2]; first compound 0.4 µM) | relative viability ([2]; first compound 1.265 µM) | relative viability ([2]; first compound 4 µM) | relative viability ([3]; first compound 0.04 µM) | relative viability ([3]; first compound 0.1265 µM) | relative viability ([3]; first compound 0.4 µM) | relative viability ([3]; first compound 1.265 µM) | relative viability ([3]; first compound 4 µM) | relative viability ([4]; first compound 0.04 µM) | relative viability ([4]; first compound 0.1265 µM) | relative viability ([4]; first compound 0.4 µM) | relative viability ([4]; first compound 1.265 µM) | relative viability ([4]; first compound 4 µM)
1 | LCLC-97TM1 | 0.734 | 0.916 | 0.962 | 0.713 | 0.208 | 0.227 | 0.34 | 0.343 | 0.279 | 0.418 | 0.458 | 0.521 | 0.365 | 0.427 | 0.302 | 0.234 | 0.425 | 0.314 | 0.639
2 | LCLC-103H | 1.06 | 0.909 | 0.982 | 0.961 | 0.502 | 0.482 | 0.51 | 0.421 | 0.388 | 0.284 | 0.351 | 0.329 | 0.268 | 0.308 | 0.709 | 0.77 | 0.757 | 0.658 | 0.522
3 | LK-2 | 0.176 | 0.19 | 0.214 | 0.226 | 0.165 | – | 0.17 | – | 0.171 | 0.325 | – | 0.744 | – | 0.636 | 0.493 | 0.385 | 0.603 | 0.434 | 0.621
4 | LOU-NH91 | 0.368 | 0.339 | 0.334 | 0.399 | 0.556 | 0.609 | 0.607 | 0.504 | 0.417 | 0.589 | 0.628 | 0.672 | 0.28 | 0.646 | 0.622 | 0.782 | 0.751 | 0.628 | 0.518
5 | LU99A | 0.3 | 0.235 | 0.248 | 0.252 | – | 0.278 | 0.234 | 0.227 | 0.227 | – | 0.924 | 0.768 | 0.605 | 0.635 | – | 0.354 | 0.467 | 0.511 | 0.771
6 | LXF-289 | 0.804 | 0.589 | 0.69 | 0.705 | 0.147 | 0.185 | 0.194 | 0.168 | 0.175 | 0.509 | 0.524 | 0.525 | 0.569 | 0.496 | 1.07 | 1.09 | 1.23 | 1.26 | 0.934
7 | NCI-H23 | – | 0.212 | 0.213 | 0.211 | 0.377 | 0.358 | 0.425 | – | 0.501 | 0.744 | 0.798 | 0.85 | – | 0.732 | 0.268 | 0.169 | 0.372 | – | 0.539
8 | NCI-H322M | 0.677 | 0.944 | 0.904 | 1.04 | 0.491 | 0.521 | 0.494 | – | 0.464 | 0.874 | 0.886 | 0.871 | – | 0.72 | 0.544 | 0.66 | 0.647 | 0.837 | 0.777
9 | NCI-H358 | 0.478 | 0.279 | 0.369 | 0.388 | 0.111 | 0.109 | 0.0968 | 0.105 | 0.0998 | 0.374 | 0.358 | 0.314 | 0.32 | 0.246 | 0.605 | 0.47 | 0.485 | 0.478 | 0.472
10 | NCI-H441 | 0.332 | 0.312 | 0.309 | 0.444 | 0.742 | 0.716 | 0.65 | – | 0.627 | 0.879 | 0.995 | 0.879 | – | 0.74 | 1.29 | 0.841 | 1.49 | 1.21 | 1.13
11 | NCI-H460 | 0.0398 | 0.0336 | 0.0427 | 0.0305 | 0.606 | 0.405 | 0.571 | 0.392 | 0.771 | 0.509 | 0.522 | 0.558 | 0.535 | 0.495 | 0.66 | 0.656 | 0.844 | 0.873 | 0.913
12 | NCI-H522 | 1.06 | 1.4 | 0.948 | 1.21 | 0.591 | 0.476 | 0.512 | 0.509 | 0.55 | 0.69 | 0.549 | 0.668 | 0.591 | 0.402 | 0.833 | 0.759 | 0.979 | 0.971 | 0.813
13 | NCI-H596 | 0.967 | 1.07 | 1.11 | 1.16 | 0.934 | 0.839 | 0.978 | – | 0.843 | 0.781 | 0.668 | 0.804 | – | 0.713 | 1.02 | 1.1 | 0.828 | 1.01 | 1.04
14 | NCI-H647 | 0.151 | 0.21 | 0.157 | 0.101 | 0.322 | 0.227 | 0.426 | 0.324 | 0.303 | 0.443 | 0.488 | 0.516 | 0.476 | 0.51 | 0.397 | 0.423 | 0.517 | 0.392 | 0.439
15 | NCI-H650 | 0.65 | 0.705 | 0.958 | 0.744 | – | 0.665 | 0.775 | 0.644 | 0.588 | – | 0.424 | 0.46 | 0.203 | 0.411 | – | 1.09 | 0.992 | – | 0.886
16 | NCI-H727 | 0.27 | 0.693 | 0.453 | 0.36 | 0.654 | 0.746 | 0.66 | 0.602 | 0.544 | 0.583 | 0.653 | 0.669 | 0.748 | 0.756 | 1.04 | 0.801 | 0.788 | 0.996 | 0.833
17 | NCI-H838 | 0.315 | 0.355 | 0.281 | 0.302 | 0.268 | 0.281 | 0.224 | 0.219 | 0.189 | 0.378 | 0.527 | 0.501 | 0.247 | 0.221 | 0.848 | 0.957 | 0.936 | 0.852 | 0.752
18 | NCI-H1355 | 0.64 | 0.818 | 0.696 | 0.766 | 0.605 | 0.552 | 0.562 | 0.565 | 0.555 | 0.393 | 0.469 | 0.498 | 0.436 | 0.388 | 0.761 | 0.819 | 0.901 | 0.91 | 0.871
